The values below come from patent US20040077634A1, “Treatment of diseases characterized by excessive or insufficient cell death” (priority 2001, published 2004).

Structures are written as SMILES. Residues, ends and D or L forms follow the SMILES beside them. *: point of attachment. Cbz = O=C(OCc1ccccc1)*; CH2F = FC*

The subject of one data set is MCF-neo cells. Briefly: TNF-induced cell death of MCF-neo cells. The format is cell-based.
The test system of a further data set is MCF-casp3 cells. The data set is described as follows: TNF-induced cell death of MCF-casp3 cells.
The target of a further data set is T1, recombinant caspase-9 (Homo sapiens, UniProt P55211).
T1 sequence (P55211 1-315 limits assumed): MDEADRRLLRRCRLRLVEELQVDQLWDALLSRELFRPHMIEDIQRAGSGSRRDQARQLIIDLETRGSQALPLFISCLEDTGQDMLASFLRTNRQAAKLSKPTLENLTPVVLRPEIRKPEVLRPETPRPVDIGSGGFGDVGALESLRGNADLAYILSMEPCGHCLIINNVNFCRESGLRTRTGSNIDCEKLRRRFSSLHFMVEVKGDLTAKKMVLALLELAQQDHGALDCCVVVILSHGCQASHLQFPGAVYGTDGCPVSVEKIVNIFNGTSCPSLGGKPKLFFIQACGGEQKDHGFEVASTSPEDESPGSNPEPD
T1 sequence (P55211 331-416 limits assumed): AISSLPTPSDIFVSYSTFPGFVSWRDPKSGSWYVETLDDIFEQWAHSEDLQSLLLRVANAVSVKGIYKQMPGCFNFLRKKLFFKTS
The data set is described as follows: Recombinant caspase-9 activity, cleavage of LEHD-AFC. The data set is classed as biochemical. The method, then: The inhibition of the DEVDase activity in the in vitro caspase activation system could be due to a direct inhibition of caspase-9, -3, or -7 activities, or to the inhibition of the apoptosome formation. To test if compounds a, f, and g were specific caspase inhibitors, recombinant caspase-3 and caspase-9 were incubated with the three compounds and the enzymatic activities of caspases were monitored by analysing the cleavage of the caspase-3 substrate DEVD-AFC or the caspase-9 substrate LEHD-AFC, respectively.

Data set [1] concerns caspase-9, caspase-3 and caspase-7 processing; DFF45/ICAD and PARP cleavage. Briefly: Processing of caspases and caspase substrates in Cc/dATP-stimulated cell extract, Western blotting. Particulars: cell extracts stimulated with Cc/dATP; Western blot; dose dependence. The data set is classed as biochemical. The method, then: Activation of endogene caspases is induced by addition of 1 mM dATP and 1 μM horse heart cytochrome c to cytosolic extract (protein concentration; 5-10 mg/ml) in the presence of DEVD-AFC and the compound (final concentration 100 μM). Activated DEVD'ases (AFC release) is measured by fluorometry in 96-well plates at 37° C. After end measurements 2× LSB-Mechaptoethanol are added to the samples for assessment of caspase processing by immunoblot analysis.
Next, the effect of the compounds on the processing of caspases and caspase substrates in the in vitro model system was analysed by Western blotting. Caspase-9, caspase-3 and caspase-7 were processed into p35, p17, and p20 active fragments, respectively, in response to Cc/dATP. Accordingly, Cc/dATP induced a threefold induction in DEVDase activity and cleavage of the caspase-3 substrates DFF45/ICAD and PARP.

The subject of data set [2] is DEVDase (caspase-3-like protease). Briefly: Inhibition of DEVDase in cytochrome c/dATP-activated Hela cytosolic extract (method 1). The format is biochemical. The conditions noted are these: compound final concentration 100 μM; 1 mM dATP and 1 μM cytochrome c; DEVD-AFC. The method, then:
Hela cells are grown in large petri dishes until subconfluency. Cells are then harvested and washed in PBS. The cell pellet is resuspended in equal volumes of ice-cold isotonic lysisbuffer (SCA; 20 mM Hepes-KOH pH 7.5, 10 mM KCl, 1.5 mM MgCl2, 1 mM EDTA, 1 mM EGTA, 250 mM sucrose, 1 mM DTT, 10 μg/ml aprotinin, 1 μg/ml leupeptin, 1 μg/ml pepstatin A, 100 μg/ml peta-block), incubated on ice for 30 min and lysed by approx. 30 strokes of a dounce homogenizer. The lysate is then centrifuged at 750 g for 10 min, and the supernatant thereof at 10,000 g for 10 min and at 20,000 g for 30 min. The clarified supernatant is removed carefully and stored in aliquots at −80° C. Activation of endogene caspases is induced by addition of 1 mM dATP and 1 μM horse heart cytochrome c to cytosolic extract (protein concentration; 5-10 mg/ml) in the presence of DEVD-AFC and the compound (final concentration 100 μM). Activated DEVD'ases (AFC release) is measured by fluorometry in 96-well plates at 37° C. After end measurements 2× LSB-Mechaptoethanol are added to the samples for assessment of caspase processing by immunoblot analysis. Percent inhibition is calculated as follows: [formula]

For the next data set, the target named is T2, recombinant caspase-3 (Homo sapiens, UniProt P42574).
T2 sequence (P42574 29-175 limits assumed): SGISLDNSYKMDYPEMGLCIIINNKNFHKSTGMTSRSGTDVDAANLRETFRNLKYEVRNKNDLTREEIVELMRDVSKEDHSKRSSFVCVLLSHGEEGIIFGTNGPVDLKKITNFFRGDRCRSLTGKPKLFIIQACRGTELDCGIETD
T2 sequence (P42574 176-277 limits assumed): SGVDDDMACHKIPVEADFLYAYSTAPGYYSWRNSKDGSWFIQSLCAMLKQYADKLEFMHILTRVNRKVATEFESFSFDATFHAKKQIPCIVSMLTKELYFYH
Briefly: Recombinant caspase-3 activity, cleavage of DEVD-AFC. The data set is classed as biochemical. The method, then:
To test if compounds a, f, and g were specific caspase inhibitors, recombinant caspase-3 and caspase-9 were incubated with the three compounds and the enzymatic activities of caspases were monitored by analysing the cleavage of the caspase-3 substrate DEVD-AFC or the caspase-9 substrate LEHD-AFC, respectively.

The target of data set [3] is T3, apoptosome complex (Apaf-1 and caspase-9) (Homo sapiens, UniProt O14727+P55211).
T3 construct: Caspase-9 antibody precipitated practically all caspase-9 present in the cell extract; endogenous in cells; host or cells: cell extract
T3 sequence (O14727 1-1248): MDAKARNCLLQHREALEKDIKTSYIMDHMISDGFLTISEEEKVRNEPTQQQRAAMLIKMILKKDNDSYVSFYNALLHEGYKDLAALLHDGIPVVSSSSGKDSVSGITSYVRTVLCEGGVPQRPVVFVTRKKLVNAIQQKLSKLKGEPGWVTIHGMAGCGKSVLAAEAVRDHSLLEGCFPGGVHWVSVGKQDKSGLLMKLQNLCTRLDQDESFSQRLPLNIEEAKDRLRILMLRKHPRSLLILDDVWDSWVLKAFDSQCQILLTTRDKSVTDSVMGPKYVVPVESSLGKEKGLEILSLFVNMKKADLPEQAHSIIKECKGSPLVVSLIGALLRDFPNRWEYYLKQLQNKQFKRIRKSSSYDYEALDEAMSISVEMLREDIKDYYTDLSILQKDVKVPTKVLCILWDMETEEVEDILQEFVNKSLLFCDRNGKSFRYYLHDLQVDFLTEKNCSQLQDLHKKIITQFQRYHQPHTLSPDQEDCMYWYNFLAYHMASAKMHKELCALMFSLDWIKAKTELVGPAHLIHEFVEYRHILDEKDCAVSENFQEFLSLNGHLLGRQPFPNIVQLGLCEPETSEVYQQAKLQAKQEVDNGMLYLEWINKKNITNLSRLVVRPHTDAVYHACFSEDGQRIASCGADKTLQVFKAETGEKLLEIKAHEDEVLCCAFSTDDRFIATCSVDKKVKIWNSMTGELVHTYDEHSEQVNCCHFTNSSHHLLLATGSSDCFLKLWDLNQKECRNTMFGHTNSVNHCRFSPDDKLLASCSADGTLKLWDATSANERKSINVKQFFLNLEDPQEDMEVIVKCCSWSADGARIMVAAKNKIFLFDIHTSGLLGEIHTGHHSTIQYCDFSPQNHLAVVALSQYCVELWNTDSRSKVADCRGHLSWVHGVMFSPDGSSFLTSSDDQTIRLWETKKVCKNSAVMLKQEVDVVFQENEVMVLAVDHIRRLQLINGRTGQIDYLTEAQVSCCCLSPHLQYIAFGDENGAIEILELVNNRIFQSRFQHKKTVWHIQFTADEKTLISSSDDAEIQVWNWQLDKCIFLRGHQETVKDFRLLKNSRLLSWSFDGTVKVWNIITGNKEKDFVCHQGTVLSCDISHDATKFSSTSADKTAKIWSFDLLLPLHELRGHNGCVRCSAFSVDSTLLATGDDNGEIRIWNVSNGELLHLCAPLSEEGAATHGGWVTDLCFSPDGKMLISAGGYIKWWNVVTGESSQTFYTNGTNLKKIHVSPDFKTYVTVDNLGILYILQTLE
T3 sequence (P55211 1-416): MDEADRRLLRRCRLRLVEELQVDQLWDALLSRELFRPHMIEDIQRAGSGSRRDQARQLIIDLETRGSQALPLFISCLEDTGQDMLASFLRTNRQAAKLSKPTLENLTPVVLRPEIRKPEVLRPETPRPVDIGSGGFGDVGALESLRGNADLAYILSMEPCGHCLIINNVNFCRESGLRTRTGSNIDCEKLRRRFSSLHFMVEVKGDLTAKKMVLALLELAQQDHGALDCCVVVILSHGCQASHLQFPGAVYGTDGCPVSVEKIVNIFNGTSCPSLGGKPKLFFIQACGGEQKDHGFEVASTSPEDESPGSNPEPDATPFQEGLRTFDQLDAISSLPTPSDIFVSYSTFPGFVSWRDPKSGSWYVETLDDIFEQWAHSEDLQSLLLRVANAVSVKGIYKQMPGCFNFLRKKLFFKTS
The data set is described as follows: Apoptosome formation: co-immunoprecipitation of Apaf-1 with caspase-9 in cell extract. The data set is classed as binding. The conditions noted are these: 1 μM zVAD-fmk, 1 hour with Cc/dATP prior to IP. The method, then: Next, it was tested whether compound f interferes with the formation of apoptosome complex in response to Cc/dATP. Cell extracts were incubated with Cc/dATP in the presence or absence of 100 μM compound f or 1 μM zVAD-fmk for 1 hour prior to the immunoprecipitation (IP) of caspase-9. […] Hsp90, which has been proposed to associate with Apaf-1 and prevent oligomerization and caspase-9 recruitment, was not co-immunoprecipitated with caspase-9.

The mark [4] stands for this setting: 25 to 100 μM, LEHD-AFC substrate.
Setting [5] is: 25 to 100 μM, DEVD-AFC substrate.

Experimental for MCF-casp3 cells: (§1) The ability of compound f to inhibit cell death was examined in MCF-neo and MCF-casp3 cells. […] To analyse the mechanism of the action of compound f in alive cells, MCF-casp3 cells were treated with TNF (5 ng/ml) in the presence of 50 μM compound f and the activity of caspase-3-like proteases was measured by a DEVDase enzyme assay.
Experimental for MCF-neo cells: as §1

`CC(=O)N[C@@H](CC(=O)O)C(=O)N[C@@H](CCC(=O)O)C(=O)N[C@H](C(=O)N[C@H](C=O)CC(=O)O)C(C)C` [DEVD-CHO, reference compound]: the “cell death induced by TNF” value is “blocked” with MCF-neo cells (1 ng/ml TNF, 200 μM DEVD-CHO) and “blocked” in the data set on MCF-casp3 cells (1 ng/ml TNF, 200 μM DEVD-CHO). The “protection against TNF” value is “significant protection” in the data set with MCF-neo cells (5 ng/ml TNF, 200 μM DEVD-CHO) and “significant protection” in the data set on MCF-casp3 cells (5 ng/ml TNF, 200 μM DEVD-CHO). The “inhibition of recombinant caspase-9 activity” value at recombinant caspase-9 (0.1 μM DEVD-CHO) was “almost total inhibition”.
In general, % Inhibition refers to the share of the control response that was lost under treatment. On to `COC(=O)c1cc(NC(=O)Nc2cccc(C(F)(F)F)c2)c(O)cc1[N+](=O)[O-]` [a, [N-(2-Hydroxy-5-methoxycarbonyl-4-nitrophenyl)-N′-(3-trifluoromethylphenyl)]urea], for which the “inhibition of caspase-9, -3 and -7 processing and DFF45/ICAD and PARP cleavage” value in data set [1] is listed as “dose-dependent inhibition”. In addition, the “% Inhibition” value in data set [2] turned out to be 80%. Also, the “inhibition of recombinant caspase-9 activity” value at recombinant caspase-9 (setting [4]) was “failed to inhibit”. Besides, the “inhibition of recombinant caspase-3 activity” value at recombinant caspase-3 (setting [5]) is recorded as “failed to inhibit”.
Usually melting point stands for the temperature of the solid-liquid transition. On to `CN1[C@H]2CC[C@@H]1[C@@H](c1nc(-c3cccs3)no1)[C@@H](c1ccc3ccccc3c1)C2.Cl` [c, (1R,2S,3S)-2-[3-(2-Thienyl)-1,2,4-oxadiazol-5-yl]-3-(2-naphthyl)-tropane hydrochloric acid salt], for which the melting point lay within 149 to 150 °C. The “% Inhibition” value in data set [2] amounted to 60%.
Regarding `c1ccc(-c2cccc(-n3cnc4ccccc43)c2)cc1` [d, 1-(3-Biphenyl)-benzimidazole], in data set [2], the “% Inhibition” value worked out at 58%.
As to `O=c1onc2cnc3cc([N+](=O)[O-])ccc3n12` [e, 7-Nitro-1,2,4-oxadiazolo[3,4-d]benz[b]-1,4-diazin-1-one], the “% Inhibition” value in data set [2] was found to be 63%.
Turning to `O=C(Nc1cccc(C(F)(F)F)c1)Nc1ccc(O)cc1O` [g, [N-(2,4-Dihydroxyphenyl)-N′-(3-trifluoromethylphenyl)]urea], in data set [1], the “inhibition of caspase-9, -3 and -7 processing and DFF45/ICAD and PARP cleavage” value is recorded as “dose-dependent inhibition”. For the same compound, the “% Inhibition” value in data set [2] worked out at 74%. For the same compound, the “inhibition of recombinant caspase-9 activity” value at recombinant caspase-9 (setting [4]) is “failed to inhibit”. On recombinant caspase-3 (setting [5]), the “inhibition of recombinant caspase-3 activity” value is “failed to inhibit”.
Take `COC(=O)C[C@H](NC(=O)[C@H](C)NC(=O)[C@@H](NC(=O)OCc1ccccc1)C(C)C)C(=O)CF` [zVAD-fmk, reference compound] (Cbz-Val-Ala-Asp(OMe)-CH2F): the TNF-induced death result in the data set on MCF-neo cells (50 μM zVAD-fmk) and in the data set with MCF-casp3 cells (50 μM zVAD-fmk) was “blocked completely” in each case. For the same compound, the “inhibition of recombinant caspase-9 activity” value at recombinant caspase-9 (1 μM zVAD-fmk) is given as “almost total inhibition”. Besides, the “co-immunoprecipitation of Apaf-1 with caspase-9” value in data set [3] is “efficiently co-immunoprecipitated”. Also, the “inhibition of recombinant caspase-3 activity” value at recombinant caspase-3 (1 μM zVAD-fmk) was “almost total inhibition”.
